Measured values as given in ChEMBL document CHEMBL5244267, “A brief overview on recent advances in spiro[chromane-2,4'-piperidine]-4(3H)-one-functionalized compounds in medicinal chemistry research” (Bioorg Med Chem, 2020).
Values after ≈ are worked out from the molar mass of the structure shown.

Key:
Carbonic anhydrase 9 = Carbonic anhydrase 9 (Homo sapiens, UniProt Q16790); assay: Binding affinity to human CA9 assessed as inhibition constant
[1] = Antioxidant activity assessed as DPPH radical scavenging activity at 100 uM/ml; format: functional
Erythrocyte = assay: Anti-inflammatory activity in human red blood cells assessed as protection of cell membrane at 100 ug/mL relative to control; format: functional; conditions: dose 100 µg/ml
[2] = Aqueous solubility of the compound at pH 5.0; format: physicochemical; conditions: buffer
Plasmodium falciparum = assay: Antiplasmodial activity against chloroquine-resistant Plasmodium falciparum Dd2 in HepG2 cells; format: functional, organism-based
[3] = Lipophilicity, logP of the compound; format: physicochemical; conditions: octanol/water
[4] = Aqueous solubility of the compound at pH 6.2; format: physicochemical; conditions: buffer
HepG2 = assay: Antiproliferative activity against human HepG2 cells assessed as reduction in cell viability after 24 hrs by MTT assay; format: functional, cell-based; conditions: HepG2, 24 h
[5] = Cmax in CD1 mouse at 0.5 mg/kg, iv; format: ADME, organism-based; design: dose 0.5 mg/kg, route iv; conditions: in vivo
[6] = AUC (0 to infinity) in CD1 mouse at 10 mg/kg, iv administered as single dose by UPLC analysis; format: ADME, organism-based; design: dose 10 mg/kg, route iv; conditions: in vivo
[7] = AUC in CD1 mouse at 10 mg/kg, iv administered as single dose by UPLC analysis; format: ADME, organism-based; design: dose 10 mg/kg, route iv; conditions: in vivo
[8] = Half life in CD1 mouse at 3 mg/kg, iv; format: ADME, organism-based; conditions: in vivo
[9] = Clearance in CD-1 mouse at 10 mg/kg iv measured by UPLC-MS/MS method; format: ADME, organism-based; conditions: in vivo
[10] = Volume of distribution in CD-1 mouse at 10 mg/kg iv measured by UPLC-MS/MS method; format: ADME, organism-based; conditions: in vivo
[11] = Antioxidant activity assessed as DPPH free radical scavenging activity at 500 microg/ml; format: functional
MCF7 = assay: Anticancer activity against human MCF7 cells assessed as inhibition of cell proliferation measured after 48 hrs by MTT assay; format: functional, cell-based; conditions: MCF7, 48 h
HT-29 = assay: Anticancer activity against human HT-29 cells assessed as inhibition of cell proliferation measured after 48 hrs by MTT assay; format: functional, cell-based; conditions: HT-29, 48 h
A2780 = assay: Anticancer activity against human A2780 cells assessed as inhibition of cell proliferation measured after 48 hrs by MTT assay; format: functional, cell-based; conditions: A2780, 48 h
[12] = Antioxidant activity assessed as H2O2 radical scavenging activity; format: functional
[13] = In vivo inhibition of ACC2 in Sprague-Dawley rat assessed as reduction in malonyl-CoA in quadriceps at […] relative to control; format: functional
[14] = target: Acetyl-CoA carboxylase 1 (Rattus norvegicus) (UniProt P11497); assay: In vivo inhibition of ACC1 in Sprague-Dawley rat assessed as reduction in malonyl-CoA in liver at […] relative to control; format: functional
[15] = target: Acetyl-CoA carboxylase 1 (Rattus norvegicus) (UniProt P11497); assay: In vivo inhibition of ACC1 in Sprague-Dawley rat assessed as reduction in malonyl-CoA in liver; format: functional
[16] = In vivo inhibition of ACC2 in Sprague-Dawley rat assessed as reduction in malonyl-CoA in quadriceps; format: functional

## COc1ccc2c(c1)OC1(CCN(c3ccc(S(N)(=O)=O)cc3[N+](=O)[O-])CC1)CC2=O
Carbonic anhydrase 9
  Ki: 2.75 µM

## CN1CCC2(CC1)CC(=O)c1c(ccc3c1CCC(C)(C)O3)O2
[1]; read-out: IC50
  IC50: 6.59 µM
Erythrocyte
  Activity: 64.72%

## OC(CN1CCC2(CC1)CC(O)c1ccc3ccccc3c1O2)c1ccc(F)c(F)c1 (stereo unspecified)
[2]
  solubility: > 42 µg/mL
Plasmodium falciparum
  EC50: 0.35 µM
[3]
  logP: 3.85
[4]
  solubility: > 42 µg/mL
HepG2
  EC50: 19 µM

## O=C(/C=C/c1ccc2c(c1)C(=O)CC1(CCN(CCc3ccccc3)CC1)O2)NO
[5]
  Cmax: 2490 nM
[6]; mouse
  AUC: 1042 ng·h/mL
[7]
  AUC: 1600 ng·h/mL
[8]
  half-life: 9.1 h
[9]; mouse, iv, 10 mg/kg
  CL: 79.8 mL/min/kg
[10]
  Vd: 8.6 L/kg

## NS(=O)(=O)c1ccc(N2CCC3(CC2)CC(=O)c2ccccc2O3)c([N+](=O)[O-])c1
Carbonic anhydrase 9
  Ki: 0.229 µM

## NS(=O)(=O)c1ccc(N2CCC3(CC2)CC(=O)c2ccc(OCCO)cc2O3)c([N+](=O)[O-])c1
Carbonic anhydrase 9
  Ki: 0.0465 µM

## COCCOc1ccc2c(c1)C(=O)CC1(CCN(c3ccc(S(N)(=O)=O)cc3[N+](=O)[O-])CC1)O2
Carbonic anhydrase 9
  Ki: 4.34 µM

## CC(=O)Oc1ccc2c(c1)C(=O)CC1(CCN(c3ccc(S(N)(=O)=O)cc3[N+](=O)[O-])CC1)O2
Carbonic anhydrase 9
  Ki: 4.08 µM

## O=C1Nc2ccc(Br)cc2/C1=C/C(=O)c1cc2c(cc1O)OC1(CCN(Cc3ccccc3)CC1)CC2=O
[11]
  IC50: 12.7 µM

## CC(=O)N1CCC2(CC1)CC(=O)c1c(ccc3c1CCC(C)(C)O3)O2
[1]; read-out: IC50
  IC50: 6.59 µM
Erythrocyte
  Activity: 56.1%

## Cc1ccc2c(c1)C(=O)CC1(CCN(c3ccc(S(N)(=O)=O)cc3[N+](=O)[O-])CC1)O2
Carbonic anhydrase 9
  Ki: 3.55 µM

## CCOc1ccc2c(c1)C(=O)CC1(CCN(c3ccc(S(N)(=O)=O)cc3[N+](=O)[O-])CC1)O2
Carbonic anhydrase 9
  Ki: 2.84 µM

## NS(=O)(=O)c1ccc(N2CCC3(CC2)CC(=O)c2cc(OCCO)ccc2O3)c([N+](=O)[O-])c1
Carbonic anhydrase 9
  Ki: 3.75 µM

## CC(=O)N1CCC2(CC1)CC(=O)c1cc(C(=O)/C=C3\C(=O)Nc4ccc(Br)cc43)c(O)cc1O2
[11]
  IC50: 58.6 µM

## NS(=O)(=O)c1ccc(N2CCC3(CC2)CC(=O)c2ccc(Br)cc2O3)c([N+](=O)[O-])c1
Carbonic anhydrase 9
  Ki: 1.47 µM

## COc1cc(C(=O)N2CCC3(CC2)CC(=O)c2ccccc2O3)cc(OC)c1OC
MCF7
  IC50: 47.1 µM
HT-29
  IC50: 23.2 µM
A2780
  IC50: 18.8 µM

## COc1ccc2c(c1)C(=O)CC1(CCN(c3ccc(S(N)(=O)=O)cc3[N+](=O)[O-])CC1)O2
Carbonic anhydrase 9
  Ki: 1.56 µM

## Cc1c(C(=O)c2ccc(-c3ccccc3)cc2)oc2cc3c(cc12)C(=O)CC1(CCN(CC(=O)OC(C)(C)C)CC1)O3
[12]
  IC50: 44.73 µg/mL (≈ 79.1 µM)
[1]
  IC50: 63.92 µg/mL

## NS(=O)(=O)c1ccc(N2CCC3(CC2)CC(=O)c2cc(Br)ccc2O3)c([N+](=O)[O-])c1
Carbonic anhydrase 9
  Ki: 0.199 µM

## CCOC(=O)N1CCC2(CC1)CC(=O)c1cc(C(=O)/C=C3\C(=O)Nc4ccc(Br)cc43)c(O)cc1O2
[11]
  IC50: 48.5 µM

## CC(C)(C)OCC(=O)CN1CCC2(CC1)CC(=O)c1cc(C(=O)/C=C3\C(=O)Nc4ccc(Br)cc43)c(O)cc1O2
[11]
  IC50: 56.3 µM

## CC(C)Oc1ccc2c(c1)C(=O)CC1(CCN(c3ccc(S(N)(=O)=O)cc3[N+](=O)[O-])CC1)O2
Carbonic anhydrase 9
  Ki: 3.3 µM

## CC(=O)N1CCC2(CC1)CC(=O)c1cc3c(cc1O2)CCC(C)(C)O3
[1]; read-out: IC50
  IC50: 5.32 µM
Erythrocyte
  Activity: 23.07%

## CC(C)(C)n1cc2c(n1)C(=O)CC1(CCN(C(=O)c3ccc4[nH]ncc4c3)CC1)O2
[13]
  inhibition (INH): 78%
[14]
  inhibition: 75%
[15]
  ED50: 1.6 mg/kg
[16]
  ED50: 2.6 mg/kg

## O=C1Nc2ccccc2/C1=C/C(=O)c1cc2c(cc1O)OC1(CCN(Cc3ccccc3)CC1)CC2=O
[11]
  IC50: 8.12 µM

## CCCOc1ccc2c(c1)C(=O)CC1(CCN(c3ccc(S(N)(=O)=O)cc3[N+](=O)[O-])CC1)O2
Carbonic anhydrase 9
  Ki: 1.24 µM

## Cc1ccc(S(=O)(=O)N2CCC3(CC2)CC(=O)c2ccccc2O3)cc1
MCF7
  IC50: 6.78 µM
HT-29
  IC50: 16 µM
A2780
  IC50: 1.79 µM

## O=C1CC2(CCN(C(=O)C34CC5CC(CC(C5)C3)C4)CC2)Oc2ccccc21
MCF7
  IC50: 23.9 µM
HT-29
  IC50: 8.46 µM
A2780
  IC50: 22.7 µM

## CC(C)(C)OCC(=O)CN1CCC2(CC1)CC(=O)c1cc(C(=O)/C=C3\C(=O)Nc4ccccc43)c(O)cc1O2
[11]
  IC50: 6.85 µM

## CC(=O)N1CCC2(CC1)CC(=O)c1cc(C(=O)/C=C3\C(=O)Nc4ccccc43)c(O)cc1O2
[11]
  IC50: 47.7 µM

## CC(C)Oc1ccc2c(c1)OC1(CCN(c3ccc(S(N)(=O)=O)cc3[N+](=O)[O-])CC1)CC2=O
Carbonic anhydrase 9
  Ki: 0.0346 µM

## NS(=O)(=O)c1ccc(N2CCC3(CC2)CC(=O)c2ccc(O)cc2O3)c([N+](=O)[O-])c1
Carbonic anhydrase 9
  Ki: 4.41 µM

## CCCOc1ccc2c(c1)OC1(CCN(c3ccc(S(N)(=O)=O)cc3[N+](=O)[O-])CC1)CC2=O
Carbonic anhydrase 9
  Ki: 4.15 µM

## CCOc1ccc2c(c1)OC1(CCN(c3ccc(S(N)(=O)=O)cc3[N+](=O)[O-])CC1)CC2=O
Carbonic anhydrase 9
  Ki: 2.65 µM

## CCOC(=O)N1CCC2(CC1)CC(=O)c1cc(C(=O)/C=C3\C(=O)Nc4ccccc43)c(O)cc1O2
[11]
  IC50: 1.74 µM

## O=C(/C=C/c1ccc2c(c1)C(=O)CC1(CCN(Cc3ccc(F)cc3)CC1)O2)NO
[5]
  Cmax: 1830 nM
[6]; CD1, mouse
  AUC(0-inf): 1490 ng·h/mL
[7]
  AUC: 1240 ng·h/mL
[8]
  half-life: 13 h
[9]; CD-1, mouse
  clearance: 55.8 mL/min/kg
[10]
  Vd: 5.9 L/kg

## O=C1O[C@H]([C@@H](O)CO)C(O)=C1O [ASCORBIC ACID]
[11]
  IC50: 8.64 µM
[1]; read-out: IC50
  IC50: 8.64 µM

## COCCOc1ccc2c(c1)OC1(CCN(c3ccc(S(N)(=O)=O)cc3[N+](=O)[O-])CC1)CC2=O
Carbonic anhydrase 9
  Ki: 0.0454 µM
